Legend:
Experiment in all cases: Kinase selectivity panel
Format in all cases: biochemical
ALK(h) = target: T1, ALK(h) (Homo sapiens, UniProt Q9UM73); conditions: read-out: Inhibition(%) @ 1 µM RK-019
T1 construct: purchased Eurofins Discovery Services (KinaseProfiler)
How it was run: (§1)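 Recombinant human kinase incubated with 1 µM compound; ATP-site competition binding quantified in vitro as inhibition ratio.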

DRAK1(h) = target: T2, DRAK1(h) (Homo sapiens, UniProt Q9UEE5); conditions: read-out: Inhibition(%) @ 1 µM RK-019
T2 construct: purchased Eurofins Discovery Services (KinaseProfiler)
How it was run: as §1

PKCβII(h) = target: T3, PKCβII(h) (Homo sapiens, UniProt P05771); conditions: read-out: Inhibition(%) @ 1 µM RK-019
T3 construct: purchased Eurofins Discovery Services (KinaseProfiler)
How it was run: as §1

Fgr(h) = target: T4, Fgr(h) (Homo sapiens, UniProt P09769); conditions: read-out: Inhibition(%) @ 1 µM RK-019
T4 construct: purchased Eurofins Discovery Services (KinaseProfiler)
How it was run: as §1

FGFR3(h) = target: T5, FGFR3(h) (Homo sapiens, UniProt P22607)
T5 construct: purchased Eurofins Discovery Services (KinaseProfiler)
T5 sequence (P22607 23-806): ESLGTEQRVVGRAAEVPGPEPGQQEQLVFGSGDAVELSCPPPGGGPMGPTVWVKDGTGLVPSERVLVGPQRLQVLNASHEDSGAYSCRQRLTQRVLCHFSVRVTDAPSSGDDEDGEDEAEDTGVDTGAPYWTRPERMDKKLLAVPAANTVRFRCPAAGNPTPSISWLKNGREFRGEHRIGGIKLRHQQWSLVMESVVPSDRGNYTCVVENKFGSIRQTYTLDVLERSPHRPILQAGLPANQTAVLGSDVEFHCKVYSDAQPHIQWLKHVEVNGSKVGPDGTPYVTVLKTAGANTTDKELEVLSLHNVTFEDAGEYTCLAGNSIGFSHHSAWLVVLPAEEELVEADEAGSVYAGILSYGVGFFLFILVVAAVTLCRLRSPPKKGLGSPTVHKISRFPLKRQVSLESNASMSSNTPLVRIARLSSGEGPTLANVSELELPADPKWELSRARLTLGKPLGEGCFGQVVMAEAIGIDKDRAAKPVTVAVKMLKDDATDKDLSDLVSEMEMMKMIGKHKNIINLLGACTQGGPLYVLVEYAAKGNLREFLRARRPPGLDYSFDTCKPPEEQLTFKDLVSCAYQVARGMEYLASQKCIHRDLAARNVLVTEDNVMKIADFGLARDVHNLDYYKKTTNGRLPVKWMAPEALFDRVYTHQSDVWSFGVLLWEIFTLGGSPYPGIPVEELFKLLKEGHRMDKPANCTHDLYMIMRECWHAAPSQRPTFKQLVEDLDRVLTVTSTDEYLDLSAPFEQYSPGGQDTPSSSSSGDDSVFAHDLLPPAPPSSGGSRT
How it was run: as §1

CDK9/cyclin T1(h) = target: T6, CDK9/cyclin T1(h) (Homo sapiens, UniProt P50750); conditions: read-out: Inhibition(%) @ 1 µM RK-019
T6 construct: purchased Eurofins Discovery Services (KinaseProfiler)
How it was run: as §1

Aurora-A(h) = target: T7, Aurora-A(h) (Homo sapiens, UniProt O14965); conditions: read-out: Inhibition(%) @ 1 µM RK-019
T7 construct: purchased Eurofins Discovery Services (KinaseProfiler)
How it was run: as §1

Syk(h) = target: T8, Syk(h) (Homo sapiens, UniProt P43405); conditions: read-out: Inhibition(%) @ 1 µM RK-019
T8 construct: purchased Eurofins Discovery Services (KinaseProfiler)
How it was run: as §1

NEK2(h) = target: T9, NEK2(h) (Homo sapiens, UniProt P51955); conditions: read-out: Inhibition(%) @ 1 µM RK-019
T9 construct: purchased Eurofins Discovery Services (KinaseProfiler)
How it was run: as §1

Pim-1(h) = target: T10, Pim-1(h) (Homo sapiens, UniProt P11309); conditions: read-out: Inhibition(%) @ 1 µM RK-019
T10 construct: purchased Eurofins Discovery Services (KinaseProfiler)
How it was run: as §1

CDK7/cyclinH/MAT1(h) = target: T11, CDK7/cyclinH/MAT1(h) (Homo sapiens, UniProt P50613); conditions: read-out: Inhibition(%) @ 1 µM RK-019
T11 construct: purchased Eurofins Discovery Services (KinaseProfiler)
How it was run: as §1

PKCβI(h) = target: T12, PKCβI(h) (Homo sapiens, UniProt P05771); conditions: read-out: Inhibition(%) @ 1 µM RK-019
T12 construct: purchased Eurofins Discovery Services (KinaseProfiler)
How it was run: as §1

MLCK(h) = target: T13, MLCK(h) (Homo sapiens, UniProt Q15746); conditions: read-out: Inhibition(%) @ 1 µM RK-019
T13 construct: purchased Eurofins Discovery Services (KinaseProfiler)
How it was run: as §1

IGF-1R(h), activated = target: T14, IGF-1R(h), activated (Homo sapiens, UniProt P08069); conditions: read-out: Inhibition(%) @ 1 µM RK-019
T14 construct: purchased Eurofins Discovery Services (KinaseProfiler)
How it was run: as §1

TGFBR2(h) = target: T15, TGFBR2(h) (Homo sapiens, UniProt P37173); conditions: read-out: Inhibition(%) @ 1 µM RK-019
T15 construct: purchased Eurofins Discovery Services (KinaseProfiler)
How it was run: as §1

IKKβ(h) = target: T16, IKKβ(h) (Homo sapiens, UniProt O14920); conditions: read-out: Inhibition(%) @ 1 µM RK-019
T16 construct: purchased Eurofins Discovery Services (KinaseProfiler)
How it was run: as §1

EphB1(h) = target: T17, EphB1(h) (Homo sapiens, UniProt P54762); conditions: read-out: Inhibition(%) @ 1 µM RK-019
T17 construct: purchased Eurofins Discovery Services (KinaseProfiler)
How it was run: as §1

Ret (V804L)(h) = target: T18, Ret (V804L)(h) (Homo sapiens, UniProt P07949, V804L); conditions: read-out: Inhibition(%) @ 1 µM RK-019
T18 construct: purchased Eurofins Discovery Services (KinaseProfiler)
How it was run: as §1

MSK1(h) = target: T19, MSK1(h) (Homo sapiens, UniProt O75582); conditions: read-out: Inhibition(%) @ 1 µM RK-019
T19 construct: purchased Eurofins Discovery Services (KinaseProfiler)
T19 sequence (O75582 whole entry): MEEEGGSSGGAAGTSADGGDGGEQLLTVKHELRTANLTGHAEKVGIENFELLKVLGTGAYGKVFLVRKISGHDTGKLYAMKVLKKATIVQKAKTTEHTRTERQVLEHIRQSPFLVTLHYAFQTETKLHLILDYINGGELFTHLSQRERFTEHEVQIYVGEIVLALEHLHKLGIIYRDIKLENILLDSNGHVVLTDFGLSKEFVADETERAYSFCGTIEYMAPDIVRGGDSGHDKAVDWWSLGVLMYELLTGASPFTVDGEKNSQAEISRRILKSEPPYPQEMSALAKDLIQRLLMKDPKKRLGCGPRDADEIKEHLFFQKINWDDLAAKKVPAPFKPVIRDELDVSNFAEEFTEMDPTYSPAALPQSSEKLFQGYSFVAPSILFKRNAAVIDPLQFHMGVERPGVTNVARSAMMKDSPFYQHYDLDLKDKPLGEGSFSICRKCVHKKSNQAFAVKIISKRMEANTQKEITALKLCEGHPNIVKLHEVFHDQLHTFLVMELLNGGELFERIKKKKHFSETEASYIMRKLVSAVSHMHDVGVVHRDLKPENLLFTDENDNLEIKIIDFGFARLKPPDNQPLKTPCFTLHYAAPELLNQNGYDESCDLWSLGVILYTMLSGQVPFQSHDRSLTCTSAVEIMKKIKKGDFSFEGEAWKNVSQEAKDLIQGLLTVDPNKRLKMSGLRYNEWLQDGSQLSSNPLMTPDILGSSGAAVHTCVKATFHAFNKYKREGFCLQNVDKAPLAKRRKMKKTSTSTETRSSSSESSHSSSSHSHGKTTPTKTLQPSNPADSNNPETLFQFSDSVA
How it was run: as §1

HIPK1(h) = target: T20, HIPK1(h) (Homo sapiens, UniProt Q86Z02); conditions: read-out: Inhibition(%) @ 1 µM RK-019
T20 construct: purchased Eurofins Discovery Services (KinaseProfiler)
How it was run: as §1

Abl(m) = target: T21, Abl(m) (Mus musculus, UniProt P00520); conditions: read-out: Inhibition(%) @ 1 µM RK-019
T21 construct: purchased Eurofins Discovery Services (KinaseProfiler)

Ron(h) = target: T22, Ron(h) (Homo sapiens, UniProt Q04912); conditions: read-out: Inhibition(%) @ 1 µM RK-019
T22 construct: purchased Eurofins Discovery Services (KinaseProfiler)
How it was run: as §1

CaMKIß(h) = target: T23, CaMKIß(h) (Homo sapiens, UniProt Q6P2M8); conditions: read-out: Inhibition(%) @ 1 µM RK-019
T23 construct: purchased Eurofins Discovery Services (KinaseProfiler)
How it was run: as §1

HRI(h) = target: T24, HRI(h) (Homo sapiens, UniProt Q9BQI3); conditions: read-out: Inhibition(%) @ 1 µM RK-019
T24 construct: purchased Eurofins Discovery Services (KinaseProfiler)
T24 sequence (Q9BQI3 whole entry): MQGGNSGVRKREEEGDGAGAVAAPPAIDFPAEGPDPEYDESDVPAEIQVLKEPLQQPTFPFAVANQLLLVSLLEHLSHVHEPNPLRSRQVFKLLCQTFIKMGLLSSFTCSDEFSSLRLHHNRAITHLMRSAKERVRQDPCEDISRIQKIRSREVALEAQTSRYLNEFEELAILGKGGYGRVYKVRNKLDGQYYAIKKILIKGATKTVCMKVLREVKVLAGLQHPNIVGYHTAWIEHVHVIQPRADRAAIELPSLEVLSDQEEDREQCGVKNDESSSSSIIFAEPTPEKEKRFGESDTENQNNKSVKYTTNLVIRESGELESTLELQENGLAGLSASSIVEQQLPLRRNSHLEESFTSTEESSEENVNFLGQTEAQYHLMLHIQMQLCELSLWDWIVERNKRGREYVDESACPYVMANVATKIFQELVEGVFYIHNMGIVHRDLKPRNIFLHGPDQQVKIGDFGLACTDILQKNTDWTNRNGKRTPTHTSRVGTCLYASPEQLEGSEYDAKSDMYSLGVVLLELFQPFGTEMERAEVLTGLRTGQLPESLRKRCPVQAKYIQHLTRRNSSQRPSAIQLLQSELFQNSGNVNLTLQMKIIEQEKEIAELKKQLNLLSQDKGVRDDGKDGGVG
How it was run: as §1

MST1(h) = target: T25, MST1(h) (Homo sapiens, UniProt Q13043); conditions: read-out: Inhibition(%) @ 1 µM RK-019
T25 construct: purchased Eurofins Discovery Services (KinaseProfiler)
T25 sequence (Q13043 whole entry): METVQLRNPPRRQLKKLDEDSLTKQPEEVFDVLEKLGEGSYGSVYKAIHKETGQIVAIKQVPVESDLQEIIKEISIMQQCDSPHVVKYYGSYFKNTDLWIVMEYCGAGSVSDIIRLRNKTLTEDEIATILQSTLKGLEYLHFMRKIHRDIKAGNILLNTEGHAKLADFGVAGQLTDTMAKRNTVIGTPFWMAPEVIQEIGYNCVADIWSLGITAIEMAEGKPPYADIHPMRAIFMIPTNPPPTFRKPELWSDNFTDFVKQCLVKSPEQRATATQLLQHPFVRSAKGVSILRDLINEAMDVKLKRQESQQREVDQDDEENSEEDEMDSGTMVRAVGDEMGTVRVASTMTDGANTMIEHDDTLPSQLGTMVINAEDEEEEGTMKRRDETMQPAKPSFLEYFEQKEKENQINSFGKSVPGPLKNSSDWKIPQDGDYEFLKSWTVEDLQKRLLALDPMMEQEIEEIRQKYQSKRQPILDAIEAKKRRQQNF
How it was run: as §1

PTK5(h) = target: T26, PTK5(h) (Homo sapiens, UniProt P42685); conditions: read-out: Inhibition(%) @ 1 µM RK-019
T26 construct: purchased Eurofins Discovery Services (KinaseProfiler)
How it was run: as §1

FGFR1(h) = target: T27, FGFR1(h) (Homo sapiens, UniProt P11362)
T27 construct: purchased Eurofins Discovery Services (KinaseProfiler)
T27 sequence (P11362 22-822): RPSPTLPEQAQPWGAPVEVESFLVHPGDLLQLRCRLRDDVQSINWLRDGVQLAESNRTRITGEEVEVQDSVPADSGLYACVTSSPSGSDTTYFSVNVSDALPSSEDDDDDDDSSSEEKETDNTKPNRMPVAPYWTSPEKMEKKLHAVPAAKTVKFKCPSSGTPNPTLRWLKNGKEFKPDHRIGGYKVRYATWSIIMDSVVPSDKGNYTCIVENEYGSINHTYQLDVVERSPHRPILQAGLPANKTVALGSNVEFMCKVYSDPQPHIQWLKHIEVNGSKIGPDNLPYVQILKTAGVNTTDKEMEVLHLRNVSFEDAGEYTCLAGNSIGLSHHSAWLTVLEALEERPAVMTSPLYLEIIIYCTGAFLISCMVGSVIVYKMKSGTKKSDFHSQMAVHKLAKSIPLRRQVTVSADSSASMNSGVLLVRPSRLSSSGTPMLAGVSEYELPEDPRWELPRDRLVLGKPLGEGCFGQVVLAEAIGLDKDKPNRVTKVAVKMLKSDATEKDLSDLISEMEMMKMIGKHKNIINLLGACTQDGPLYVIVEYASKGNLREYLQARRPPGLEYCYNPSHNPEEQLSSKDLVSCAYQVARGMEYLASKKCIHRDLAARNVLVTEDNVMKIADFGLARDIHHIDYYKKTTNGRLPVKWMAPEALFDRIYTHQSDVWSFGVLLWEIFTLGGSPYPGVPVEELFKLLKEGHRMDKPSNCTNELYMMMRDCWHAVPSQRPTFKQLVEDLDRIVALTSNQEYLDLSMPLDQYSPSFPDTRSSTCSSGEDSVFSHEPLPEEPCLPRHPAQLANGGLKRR
How it was run: as §1

JAK2(h) = target: T28, JAK2(h) (Homo sapiens, UniProt O60674); conditions: read-out: Inhibition(%) @ 1 µM RK-019
T28 construct: purchased Eurofins Discovery Services (KinaseProfiler)
How it was run: as §1

CLK1(h) = target: T29, CLK1(h) (Homo sapiens, UniProt P49759); conditions: read-out: Inhibition(%) @ 1 µM RK-019
T29 construct: purchased Eurofins Discovery Services (KinaseProfiler)
T29 sequence (P49759 whole entry): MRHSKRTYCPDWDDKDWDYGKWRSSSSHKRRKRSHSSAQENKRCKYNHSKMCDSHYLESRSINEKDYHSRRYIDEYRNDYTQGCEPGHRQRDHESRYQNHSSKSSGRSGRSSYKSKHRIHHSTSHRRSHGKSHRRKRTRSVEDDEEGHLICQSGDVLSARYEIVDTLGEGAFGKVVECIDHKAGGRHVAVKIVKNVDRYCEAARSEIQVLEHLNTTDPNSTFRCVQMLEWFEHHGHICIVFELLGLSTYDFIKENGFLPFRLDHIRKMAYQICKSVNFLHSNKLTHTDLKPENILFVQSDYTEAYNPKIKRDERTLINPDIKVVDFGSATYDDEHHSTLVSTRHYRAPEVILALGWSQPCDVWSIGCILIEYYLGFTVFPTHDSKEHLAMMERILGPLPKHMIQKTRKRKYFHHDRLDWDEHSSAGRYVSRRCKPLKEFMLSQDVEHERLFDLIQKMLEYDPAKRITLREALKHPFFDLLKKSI
How it was run: as §1

GRK7(h) = target: T30, GRK7(h) (Homo sapiens, UniProt Q8WTQ7); conditions: read-out: Inhibition(%) @ 1 µM RK-019
T30 construct: purchased Eurofins Discovery Services (KinaseProfiler)
How it was run: as §1

FGFR4(h) = target: T31, FGFR4(h) (Homo sapiens, UniProt P22455)
T31 construct: purchased Eurofins Discovery Services (KinaseProfiler)
T31 sequence (P22455 22-802): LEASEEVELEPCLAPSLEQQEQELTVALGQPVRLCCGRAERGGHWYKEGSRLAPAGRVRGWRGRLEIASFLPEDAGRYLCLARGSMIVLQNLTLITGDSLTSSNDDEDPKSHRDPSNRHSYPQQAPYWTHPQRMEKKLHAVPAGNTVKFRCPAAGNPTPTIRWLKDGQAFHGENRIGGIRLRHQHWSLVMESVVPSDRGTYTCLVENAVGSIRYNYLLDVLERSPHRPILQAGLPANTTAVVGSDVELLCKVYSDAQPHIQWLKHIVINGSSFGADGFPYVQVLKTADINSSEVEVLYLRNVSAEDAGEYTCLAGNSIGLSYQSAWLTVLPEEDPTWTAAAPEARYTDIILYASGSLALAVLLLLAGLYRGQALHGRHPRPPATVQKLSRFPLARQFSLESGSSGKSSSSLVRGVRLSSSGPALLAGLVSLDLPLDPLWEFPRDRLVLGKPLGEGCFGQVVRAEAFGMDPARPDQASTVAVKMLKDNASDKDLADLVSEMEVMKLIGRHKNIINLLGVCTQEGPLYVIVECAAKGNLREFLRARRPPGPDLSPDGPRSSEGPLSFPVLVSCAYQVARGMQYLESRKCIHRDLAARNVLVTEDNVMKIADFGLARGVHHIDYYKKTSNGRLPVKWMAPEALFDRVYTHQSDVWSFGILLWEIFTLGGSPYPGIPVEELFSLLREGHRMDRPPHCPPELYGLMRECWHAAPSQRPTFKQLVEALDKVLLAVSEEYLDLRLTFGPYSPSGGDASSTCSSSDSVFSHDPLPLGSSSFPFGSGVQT
How it was run: as §1

MAP4K3(h) = target: T32, MAP4K3(h) (Homo sapiens, UniProt Q8IVH8); conditions: read-out: Inhibition(%) @ 1 µM RK-019
T32 construct: purchased Eurofins Discovery Services (KinaseProfiler)
How it was run: as §1

SAPK2a(T106M)(h) = target: T33, SAPK2a(T106M)(h) (Homo sapiens, UniProt Q16539, T106M); conditions: read-out: Inhibition(%) @ 1 µM RK-019
T33 construct: purchased Eurofins Discovery Services (KinaseProfiler)
How it was run: as §1

SAPK2b(h) = target: T34, SAPK2b(h) (Homo sapiens, UniProt Q15759); conditions: read-out: Inhibition(%) @ 1 µM RK-019
T34 construct: purchased Eurofins Discovery Services (KinaseProfiler)
How it was run: as §1

MKK3(h) = target: T35, MKK3(h) (Homo sapiens, UniProt P46734); conditions: read-out: Inhibition(%) @ 1 µM RK-019
T35 construct: purchased Eurofins Discovery Services (KinaseProfiler)
How it was run: as §1

COc1cc(OC)cc(N(CCN[C@H](C)CO)c2ccc3ncc(-c4cnn(C)c4)c(=O)n3c2)c1 [RK-019, (R)-7-((3,5-dimethoxyphenyl) (2-((1-hydroxypropan-2-yl)amino)ethyl)amino)-3-(1-methyl-1H-pyrazol-4-yl)-4H-pyrido [1,2-a]pyrimidin-4-one]
activity at 1 µM (ALK(h)): 85%
activity at 1 µM (DRAK1(h)): 95%
activity at 1 µM (PKCβII(h)): 111%
activity at 1 µM (Fgr(h)): 54%
activity at 1 µM (FGFR3(h); FGFR3(h), read-out: Inhibition(%) @ 1 µM RK-019): -3%
inhibition at 1 µM (FGFR3(h); FGFR3, 1 µM, read-out: inhibition (hit in panel)): > 90%
activity at 1 µM (CDK9/cyclin T1(h)): 99%
activity at 1 µM (Aurora-A(h)): 133%
activity at 1 µM (Syk(h)): 116%
activity at 1 µM (NEK2(h)): 80%
activity at 1 µM (Pim-1(h)): 111%
activity at 1 µM (CDK7/cyclinH/MAT1(h)): 108%
activity at 1 µM (PKCβI(h)): 102%
activity at 1 µM (MLCK(h)): 92%
activity at 1 µM (IGF-1R(h), activated): 101%
activity at 1 µM (TGFBR2(h)): 85%
activity at 1 µM (IKKβ(h)): 90%
activity at 1 µM (EphB1(h)): 58%
activity at 1 µM (Ret (V804L)(h)): 92%
activity at 1 µM (MSK1(h)): 95%
activity at 1 µM (HIPK1(h)): 93%
activity at 1 µM (Abl(m)): 17%
activity at 1 µM (Ron(h)): 124%
activity at 1 µM (CaMKIß(h)): 97%
activity at 1 µM (HRI(h)): 100%
activity at 1 µM (MST1(h)): 121%
activity at 1 µM (PTK5(h)): 107%
activity at 1 µM (FGFR1(h); FGFR1(h), read-out: Inhibition(%) @ 1 µM RK-019): -1%
inhibition at 1 µM (FGFR1(h); FGFR1, 1 µM, read-out: inhibition (hit in panel)): > 90%
activity at 1 µM (JAK2(h)): 106%
activity at 1 µM (CLK1(h)): 104%
activity at 1 µM (GRK7(h)): 108%
activity at 1 µM (FGFR4(h); FGFR4(h), read-out: Inhibition(%) @ 1 µM RK-019): 5%
inhibition at 1 µM (FGFR4(h); FGFR4, 1 µM, read-out: inhibition (hit in panel)): > 90%
activity at 1 µM (MAP4K3(h)): 132%
activity at 1 µM (SAPK2a(T106M)(h)): 90%
activity at 1 µM (SAPK2b(h)): 94%
activity at 1 µM (MKK3(h)): 96%
